Consider five compounds from ChEMBL document CHEMBL5370646, “Synthesis and Conformational Analysis of FR901464-Based RNA Splicing Modulators and Their Synergism in Drug-Resistant Cancers” (J Med Chem, 2023).

Data set [1] has as its system HCT-116. Kind of data set: Growth inhibition of human HCT-116 cells assessed as reduction in cell viability incubated for 72 hrs. The data set is classed as functional.
Another data set deals with SW48. The experiment in a line: Growth inhibition of human SW48 cells assessed as reduction in cell viability incubated for 72 hrs. The data set is classed as functional.
Another data set has as its system A549. The experiment in a line: Growth inhibition of human A549 cells assessed as reduction in cell viability incubated for 72 hrs. It is filed as functional.
The test system of another data set is DMS-53. The experiment in a line: Growth inhibition of human DMS-53 cells assessed as reduction in cell viability incubated for 72 hrs. The data set is classed as functional.
The next data set relates to DMS-114. The experiment in a line: Growth inhibition of human DMS-114 cells assessed as reduction in cell viability incubated for 72 hrs. The data set is classed as functional.
Data set [2] can be described thus: Growth inhibition of human CCD-841CoN cells assessed as reduction in cell viability incubated for 72 hrs. It is filed as toxicity, cell-based.
Data set [3] can be described thus: Growth inhibition of mouse FL83B cells assessed as reduction in cell viability incubated for 72 hrs. It is filed as toxicity, cell-based.
The nature of data set [4]: Metabolic stability in CD1 mouse plasma assessed as half life measured after 10 mins by LC-MS analysis. It is filed as ADME, cell-free.
The test system of data set [5] is HCT-116. Kind of data set: Modulation of RNA splicing in human HCT-116 cells assessed as decrease in SF3B1 phosphorylation at thr313 residue by Western blot analysis. It is filed as functional, cell-based. Conditions: dose 3-100 nM.
For data set [6], the system named is HCT-116. The experiment in a line: Modulation of RNA splicing in human HCT-116 cells assessed as decrease in MCL-1L expression by Western blot analysis. The data set is classed as functional, cell-based. The settings on record: dose 3-100 nM.
For data set [7], the system named is HCT-116. Kind of data set: Modulation of RNA splicing in human HCT-116 cells assessed as decrease in MCL-1S expression by Western blot analysis. The data set is classed as functional, cell-based. Conditions: dose 3-100 nM.
A short description of data set [8]: Metabolic stability in CD1 mouse plasma assessed as half life measured after 48 hrs by LC-MS analysis. It is filed as ADME, cell-free.
The nature of data set [9]: Metabolic stability in CD1 mouse plasma measured after 48 hrs by LC-MS analysis. It is filed as ADME, cell-free.
Data set [10] is described as follows: Synergistic antiproliferative activity against human Osimertinib-resistant HCC827AR cell assessed as combination index at 2.5 nM incubated for 72 hrs in presence of 0.25 uM osimertinib by WST-1 assay. The data set is classed as functional.
A short description of data set [11]: Synergistic antiproliferative activity against human Osimertinib-resistant HCC827AR cell assessed as combination index at 2.5 nM incubated for 72 hrs in presence of 0.50 uM osimertinib by WST-1 assay. It is filed as functional.
Data set [12] in a line: Synergistic antiproliferative activity against human Osimertinib-resistant HCC827AR cell assessed as combination index at 2.5 nM incubated for 72 hrs in presence of 1 uM osimertinib by WST-1 assay. The data set is classed as functional.
Data set [13] is described as follows: Synergistic antiproliferative activity against human Osimertinib-resistant HCC827AR cell assessed as combination index at 2.5 nM incubated for 72 hrs in presence of 2 uM osimertinib by WST-1 assay. It is filed as functional.
A short description of data set [14]: Synergistic antiproliferative activity against human Osimertinib-resistant HCC827AR cell assessed as combination index at 2.5 nM incubated for 72 hrs in presence of 4 uM osimertinib by WST-1 assay. The data set is classed as functional.

Regarding `CC(=O)O[C@@H](C)/C=C\C(=O)N[C@@H]1C[C@H](C)[C@H](C/C=C(C)/C=C/[C@H]2OC(C)(C)C[C@@]3(CO3)[C@@H]2O)O[C@@H]1C`, the GI50 in the data set with HCT-116 [1] is 0.7 nM; with SW48, 0.9 nM; with A549, 2.7 nM; in the data set with DMS-53, 0.5 nM; in the data set on DMS-114, 0.4 nM. Besides, the GI50 at 72 h in data set [2] turned out to be 2 nM; in data set [3], 0.9 nM. Besides, the half-life in data set [4] came to 1 min.

As for `COCO[C@@H](C)/C=C\C(=O)N(C)[C@@H]1C[C@H](C)[C@H](C/C=C(C)/C=C/[C@H]2OC(C)(C)C[C@@]3(CO3)[C@@H]2O)O[C@@H]1C`, the concentration for 50% growth inhibition (GI50) in the data set on HCT-116 [1] came out at 4100 nM; in the data set with SW48 it was 4600 nM; in the data set with A549 it was 7500 nM; in the data set on DMS-53, 6000 nM; in the data set with DMS-114, 4900 nM.

As to `COCO[C@@H](C)/C=C\C(=O)N[C@@H]1CC[C@H](C/C=C(C)/C=C/[C@H]2OC(C)(C)C[C@@]3(CO3)[C@@H]2O)O[C@@H]1C`, the GI50 is 10.5 nM with HCT-116 [1]; 10.7 nM with SW48; 8.6 nM with A549; 14.9 nM in the data set on DMS-53; 10.2 nM with DMS-114. Moreover, the GI50 at 72 h in data set [2] is 63.2 nM; in data set [3], 35.7 nM. The Activity result in the data set on HCT-116 [5], with HCT-116 [6] and in the data set with HCT-116 [7] was “Dose-Dependent Effect” in each case. Moreover, in data set [8], the half-life is 8 h. Besides, the Stability result in data set [9] is recorded as “Stable”.

As to `Cc1c(-c2c(-c3ccc(F)o3)sc3ncnc(O[C@H](Cc4ccccc4OCc4ccnn4CC(F)(F)F)C(=O)O)c23)ccc(OCCN2CCN(C)CC2)c1Cl`, the CI was determined as 0.38 in data set [10]; 0.46 in [11]; 0.55 in data set [12]; 0.47 in data set [13]; 0.42 in [14].

On to `COCO[C@@H](C)/C=C\C(=O)N(C)[C@@H]1CC[C@H](C/C=C(C)/C=C/[C@H]2OC(C)(C)C[C@@]3(CO3)[C@@H]2O)O[C@@H]1C`, for which the GI50 with HCT-116 [1] amounted to 16000 nM; in the data set with SW48, 16000 nM; in the data set with A549, 34000 nM; in the data set with DMS-53 it was 23000 nM; in the data set with DMS-114, 8700 nM.
